Assays:
HUVECs = assay: Chemotaxis assay (Transwell); format: cell-based, human
Procedure: (§1) The chemotactic motility of HUVECs was assayed using Transwell (Costar) with 6.5-mm diameter polycarbonate filters (8-μm pore size). The lower filter surface was coated with 10 μg gelatin (Sigma-Aldrich). Various concentrations of TMD23 in the absence or presence of 10 μg/mL polyclonal rabbit anti-TMD23 antibody or 10 ng/mL vascular endothelial growth factor (VEGF) (R & D Systems, Inc.) in M199 were placed in the lower wells. One hundred mL cell suspension containing 1×10^5 cells was loaded into each of upper well. The chamber was incubated at 37° C. for 4 h. Cells were fixed with methanol and stained with 4′,6′-diamidino-2-phenylindole (DAPI). Chemotaxis was quantified with optical microscopy (Leica) at 100× magnification using MetaMorph imaging software (Universal Imaging Corporation) by counting the cells that migrated to the filter's lower side. Five random fields in each well were counted. Each sample was assayed in triplicate, and assays were repeated three times. To determine the role of extracellular signal-regulated kinase 1/2 (ERK1/2), p38 mitogen-activated protein kinase (MAPK), and phosphatidylinositol 3-kinase (PI3 kinase)-protein kinase B/Akt (Akt) in TMD23-mediated cell migration, assays were performed in the presence of U0126, a MAPK/ERK kinase (MEK) inhibitor, SB 203580, a p38 MAPK inhibitor, and LY 294002, a PI3 kinase inhibitor. Cell viability as determined by trypan blue staining was not altered by treatment. 00126 was purchased from Promega, with SB 203580 and LY 294002 from Calbiochem.
as §1, with “hundred μL” for “hundred mL”, “MAPK/ERK kinase-(MEK)” for “MAPK/ERK kinase (MEK)”, “treatment. U0126” for “treatment. 00126”

[1] = test system: ERK1/2, p38 MAPK, Akt, and eNOS phosphorylation in HUVECs; assay: Assay of ERK1/2, p38 MAPK, Akt and eNOS phosphorylation (Western blotting); format: cell-based, human
Procedure: HUVECs were cultured to confluence in a 6-cm-diameter dish and incubated in M199 containing 1% FBS for 18 h. Cells were washed and incubated with serum-free M199 for 6 h, and treated with the indicated concentration of TMD23. Cell lysates were separated by SDS-PAGE, and the levels of phospho-ERK1/2 (Tyr 204) and total ERK1/2, phospho-p38 (Thr-180/Tyr-182) and p38, phosphor-Akt (Ser-473) and Akt, and phospho-eNOS (Ser-1173) and eNOS were detected by Western blotting with specific antibodies (Cell Signaling Technology).

[2] = test system: PAI activity in conditioned media of HUVECs; assay: Plasminogen activator inhibitor (PAI) activity assay; format: cell-based, human; conditions: 12 h; 100 or 1000 ng/mL TMD23, 70 ng/mL PMA, 10 ng/mL VEGF
Procedure: (§2) HUVECs were seeded at 80% confluence on 100-mm dishes in M199 medium. After 24 h, cells were rinsed with serum-free M199 twice and incubated in serum-free M199 with various concentrations of TMD23, VEGF (10 ng/mL), or PMA (70 ng/mL) for 12 h. The conditioned medium containing […] secreted proteins was analyzed by gelatin- and casein-based zymographies. The digested area appeared clear on a blue background, indicating the location of matrix metalloproteinase (MMP) activity. To further verify MMP caseinolytic activity, the casein-containing gel was incubated with incubation buffer containing 10 mM EDTA, an inhibitor of MMPs, to observe disappearance of the clear band. Plasminogen activator inhibitor (PAI) activity was measured by titrating samples with increasing amounts of tissue-type plasminogen activator (t-PA) (Boehringer Ingelheim) into a fixed volume of endothelial-cell-conditioned media.
as §2, with “zymographies. Lee O H, et al., Identification of angiogenic properties of insulin-like growth factor II in in vitro angiogenesis models. Brit J. Cancer. 2000; 82:385-391.” for “zymographies.”, “media. Shi G Y., et al., Plasmin and the regulation of tissue-type plasminogen activator biosynthesis in human endothelial cells. […]” for “media.”

[3] = test system: Matrigel plugs in FVB mice; assay: Murine angiogenesis assay (Matrigel plug); format: in vivo
[4] = Thrombomodulin activity assay (cofactor activity for thrombin-dependent protein C activation); format: biochemical
Procedure: Cofactor activity of TMD2 and TMD23 for thrombin-dependent protein C activation was measured as described previously. Huang H C., et al Thrombomodulin-mediated cell adhesion: Involvement of its lectin-like domain. J Biol. Chem. 2003; 278:46750-46759.
Cofactor activity of TMD2 and TMD23 for thrombin-dependent protein C activation was measured as described previously. Huang H C., et al Thrombomodulin-mediated cell adhesion: Involvement of its lectin-like domain. J Biol. Chem. 2003; 278: 46750-46759.

Question: For “TMD23: Recombinant human thrombomodulin fragment, amino acids Ala242-Ser515 of SEQ ID NO: 2: six EGF-like structures (D2) plus Ser/Thr-rich domain D3”, which “Effect on HUVEC migration compared with VEGF (10 ng/mL)” value (HUVECs; 10 ng/mL TMD23) is on record?
Answer: The value was “comparable with that of VEGF”.

Question: And the “Migratory activity increased over the control” value (HUVECs; 10 ng/mL TMD23, 4 h)?
Answer: The value was 80%.

Question: And the “Chemotactic response in HUVECs” value (HUVECs; FIG. 2B)?
Answer: The value was “markedly induced a dose-dependent chemotactic response”.

Question: What about the “Time of maximal phosphorylation (ERK, p38, and Akt)” value ([1]; FIG. 3B) of the same substance?
Answer: Its value is “about 30 min”.

Question: And the “Time of maximal phosphorylation (eNOS)” value ([1]; FIG. 3B)?
Answer: Its value is roughly 120 min.

Question: And the “ERK1/2, p38, Akt, and eNOS phosphorylation in HUVECs” value ([1]; total proteins remained constant, FIG. 3A)?
Answer: Its value is “dose-dependently induced”.

Question: What about the “PAI activity in conditioned media of HUVECs” value [2] of the same substance?
Answer: The value was “decreased significantly”.

Question: What about the “Appearance of Matrigel plugs, without heparin” value [3] of the same substance?
Answer: The value was “pale”.

Question: What about the “Cofactor activity for thrombin-dependent protein C activation” value [4] of the same substance?
Answer: Its value is 2,650 pmol of APC formed/min/mg TMD23.
